Measured values taken from PubChem BioAssay (NCI).
“And” between values parts separate entries of the source, which are not always exact repeats. Identical values can stand only once.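 Following 48 hours of exposure in 96-well plates, responses at five concentrations were used to interpolate endpoints linearly. GI50: concentration for 50% inhibition of growth. TGI marks complete inhibition of growth.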

Assays:
Test in all cases: growth of human tumour cells (NCI), 48 h
[1] = tested on: HCT-116 colon
[2] = tested on: T-47D breast
[3] = tested on: SF-295 CNS
[4] = tested on: SK-MEL-5 melanoma
[5] = tested on: HS 578T breast
[6] = tested on: MCF7 breast
[7] = tested on: U251 CNS
[8] = tested on: HOP-92 NSCLC
[9] = tested on: SK-MEL-28 melanoma
[10] = tested on: IGROV1 ovarian
[11] = tested on: NCI-H522 lung
[12] = tested on: TK-10 renal
[13] = tested on: SK-MEL-2 melanoma
[14] = tested on: CAKI-1 renal
[15] = tested on: RXF 393 renal
[16] = tested on: SNB-75 CNS
[17] = tested on: SF-268 CNS
[18] = tested on: NCI-H23 lung
[19] = tested on: A549 NSCLC
[20] = tested on: BT-549 breast
[21] = tested on: UACC-257 melanoma
[22] = tested on: NCI-H226 lung
[23] = tested on: OVCAR-5 ovarian
[24] = tested on: ACHN renal
[25] = tested on: MALME-3M melanoma
[26] = tested on: A498 renal
[27] = tested on: UACC-62 melanoma
[28] = tested on: M14 melanoma
[29] = tested on: DU-145 prostate
[30] = tested on: HL-60(TB) leukemia
[31] = tested on: MDA-MB-435
[32] = tested on: SF-539 CNS
[33] = tested on: PC-3 prostate
[34] = tested on: 786-0 renal
[35] = tested on: OVCAR-4 ovarian
[36] = tested on: OVCAR-8 ovarian
[37] = tested on: OVCAR-3 ovarian
[38] = tested on: LOX IMVI melanoma
[39] = tested on: UO-31 renal
[40] = tested on: HOP-62 NSCLC
[41] = tested on: SNB-19 CNS
[42] = tested on: SN12C renal
[43] = tested on: MDA-MB-231 breast
[44] = tested on: EKVX NSCLC
[45] = tested on: HT29 colon
[46] = tested on: NCI-H460 lung
[47] = tested on: RPMI-8226 leukemia
[48] = tested on: KM12 colon
[49] = tested on: SW-620 colon
[50] = tested on: MOLT-4 leukemia

Q: `Cc1cc(=O)oc2cc(OCc3c(F)cccc3Cl)ccc12` was tested. Which TGI [1] did it give?
A: Its TGI is > 100 µM.

Q: What about the TGI [2] of the same compound?
A: Its TGI is > 100 µM.

Q: What about the TGI [3] of the same compound?
A: Its TGI is 52.9 µM.

Q: What about the TGI [4] of the same compound?
A: Its TGI is > 100 µM.

Q: And the TGI [5]?
A: The TGI was 99.1 µM.

Q: And the TGI [6]?
A: The TGI was > 100 µM.

Q: What about the TGI [7] of the same compound?
A: Its TGI is 30.1 µM.

Q: What about the TGI [8] of the same compound?
A: The TGI was 33.2 µM.

Q: And the TGI [9]?
A: Its TGI is > 100 µM.

Q: What about the TGI [10] of the same compound?
A: Its TGI is > 100 µM.

Q: And the TGI [11]?
A: Its TGI is > 100 µM.

Q: And the TGI [12]?
A: Its TGI is > 100 µM.

Q: What about the TGI [13] of the same compound?
A: Its TGI is > 100 µM.

Q: And the TGI [14]?
A: The TGI was > 100 µM.

Q: What about the TGI [15] of the same compound?
A: The TGI was 27.5 µM.

Q: What about the TGI [16] of the same compound?
A: The TGI was 34.1 µM.

Q: And the TGI [17]?
A: Its TGI is > 100 µM.

Q: What about the TGI [18] of the same compound?
A: The TGI was > 100 µM.

Q: What about the TGI [19] of the same compound?
A: Its TGI is > 100 µM.

Q: What about the TGI [20] of the same compound?
A: The TGI was > 100 µM.

Q: What about the TGI [21] of the same compound?
A: Its TGI is > 100 µM.

Q: And the TGI [22]?
A: Its TGI is > 100 µM.

Q: What about the TGI [23] of the same compound?
A: Its TGI is > 100 µM.

Q: What about the TGI [24] of the same compound?
A: The TGI was > 100 µM.

Q: What about the TGI [25] of the same compound?
A: Its TGI is > 100 µM.

Q: What about the TGI [26] of the same compound?
A: Its TGI is > 100 µM.

Q: What about the TGI [27] of the same compound?
A: The TGI was 35 µM.

Q: What about the TGI [28] of the same compound?
A: The TGI was > 100 µM.

Q: What about the TGI [29] of the same compound?
A: Its TGI is > 100 µM.

Q: And the TGI [30]?
A: Its TGI is > 100 µM.

Q: What about the TGI [31] of the same compound?
A: Its TGI is 3.5 µM.

Q: What about the TGI [32] of the same compound?
A: The TGI was 48.7 µM.

Q: What about the TGI [33] of the same compound?
A: Its TGI is > 100 µM.

Q: What about the TGI [34] of the same compound?
A: Its TGI is 40.2 µM.

Q: And the TGI [35]?
A: Its TGI is > 100 µM.

Q: What about the TGI [36] of the same compound?
A: Its TGI is > 100 µM.

Q: What about the TGI [37] of the same compound?
A: The TGI was > 100 µM.

Q: And the TGI [38]?
A: The TGI was > 100 µM.

Q: And the TGI [39]?
A: The TGI was > 100 µM.

Q: What about the TGI [40] of the same compound?
A: The TGI was 38 µM.

Q: What about the TGI [41] of the same compound?
A: The TGI was > 100 µM.

Q: What about the TGI [42] of the same compound?
A: Its TGI is > 100 µM.

Q: What about the TGI [43] of the same compound?
A: The TGI was > 100 µM.

Q: For `Cc1ccnc2[nH]c(-c3ccccc3)cc(=O)c12`, which TGI [1] is on record?
A: The TGI was 10.6 µM.

Q: What about the TGI [2] of the same compound?
A: The TGI was > 100 µM.

Q: And the GI50 [44]?
A: Its GI50 is > 100 µM.

Q: What about the TGI [44] of the same compound?
A: The TGI was > 100 µM.

Q: What about the TGI [45] of the same compound?
A: The TGI was 0.0259 µM.

Q: What about the TGI [5] of the same compound?
A: The TGI was > 100 µM.

Q: And the TGI [7]?
A: The TGI was > 100 µM.

Q: What about the TGI [8] of the same compound?
A: Its TGI is 93.7 µM.

Q: What about the TGI [9] of the same compound?
A: Its TGI is > 100 µM.

Q: And the GI50 [10]?
A: The GI50 was 1.84 µM.

Q: And the TGI [10]?
A: The TGI was > 100 µM.

Q: What about the TGI [11] of the same compound?
A: Its TGI is 0.192 µM.

Q: And the TGI [12]?
A: Its TGI is 58.9 µM.

Q: And the TGI [46]?
A: Its TGI is > 100 µM.

Q: What about the TGI [15] of the same compound?
A: Its TGI is 0.0184 µM.

Q: And the GI50 [17]?
A: Its GI50 is 0.0171 µM.

Q: What about the TGI [17] of the same compound?
A: The TGI was > 100 µM.

Q: What about the GI50 [18] of the same compound?
A: The GI50 was 0.0692 µM.

Q: And the TGI [19]?
A: Its TGI is > 100 µM.

Q: What about the TGI [20] of the same compound?
A: The TGI was > 100 µM.

Q: What about the GI50 [22] of the same compound?
A: Its GI50 is 1.46 µM.

Q: And the TGI [22]?
A: Its TGI is 5.96 µM and 32.5 µM.

Q: And the GI50 [23]?
A: The GI50 was 20.9 µM.

Q: And the TGI [23]?
A: The TGI was 51.2 µM.

Q: What about the TGI [24] of the same compound?
A: Its TGI is 63.3 µM.

Q: And the TGI [25]?
A: Its TGI is > 100 µM.

Q: What about the TGI [29] of the same compound?
A: Its TGI is > 100 µM.

Q: What about the GI50 [47] of the same compound?
A: The GI50 was 0.0278 µM.

Q: And the TGI [33]?
A: Its TGI is > 100 µM.

Q: What about the TGI [48] of the same compound?
A: The TGI was 12.8 µM.

Q: What about the TGI [34] of the same compound?
A: The TGI was > 100 µM.

Q: And the TGI [49]?
A: The TGI was > 100 µM.

Q: What about the TGI [35] of the same compound?
A: Its TGI is > 100 µM.

Q: And the GI50 [36]?
A: The GI50 was 0.0193 µM.

Q: What about the TGI [36] of the same compound?
A: Its TGI is > 100 µM.

Q: What about the TGI [50] of the same compound?
A: Its TGI is > 100 µM.

Q: And the GI50 [42]?
A: The GI50 was 0.0399 µM.

Q: And the GI50 [43]?
A: Its GI50 is 0.134 µM.
